{"source": "patent US20150335692A1", "about": "“ORAL PREPARATION, INJECTION PREPARATION, EXTERNAL SKIN PREPARATION AND COSMETIC METHOD FOR PREVENTING OR IMPROVING WRINKLES” (Shiseido Company, Ltd., priority 2008, published 2015)", "key": {"fine wrinkle model": {"system": "fine wrinkle model", "test": "Anti-wrinkle effects in fine wrinkle model (visual wrinkle score)", "type": "in vivo", "conditions": "1 mM in 50% aqueous ethanol, 100 μl applied to skin three times a week for two weeks; scored two weeks later; higher scores indicate deeper wrinkles", "method": "The anti-wrinkle effects of the heparanase inhibitor, suramin, were assessed using a fine wrinkle model (Non-Patent Document 2).\nSuramin was dissolved in 50% aqueous ethanol solution to a concentration of 1 mM and applied in 100 μl aliquots to skin of the fine wrinkle model three times a week for a period of two weeks during which time fine wrinkles are formed. A 50% aqueous ethanol solution was used as a solvent control.\nThe formation of wrinkles two weeks later was scored by visual evaluation. Wrinkle formation was scored in increments of 0.5 based on evaluation criteria consisting of: no wrinkles: 0, slight wrinkles: 1, obvious wrinkles: 2 and deep wrinkles: 3. Higher scores indicate deeper wrinkles. In contrast to the mean value of the scores of the solvent control being 0.78, that for suramin was 0.31, thereby indicating significant wrinkle inhibitory effects as compared with the solvent control. Namely, the application of suramin at 1 mM significant inhibited wrinkle formation as compared with 50% ethanol applied as a solvent control. […]\nThe formation of wrinkles two weeks later was scored by visual evaluation. Wrinkle formation was scored in increments of 0.5 based on evaluation criteria consisting of: no wrinkles: 0, slight wrinkles: 1, obvious wrinkles: 2 and deep wrinkles: 3. […]"}, "[1]": {"system": "basement membrane heparan sulfate chains", "test": "Immunostaining of epidermal basement membrane heparan sulfate chains in skin of fine wrinkle model", "type": "in vivo", "conditions": "skin coated with 1 mM compound versus 50% ethanol solvent control", "source_text": "Next, heparan sulfate chains were immunostained for the skin after 2 days, 1 week and 2 weeks, and the staining results are shown in FIG. 4. Although staining of basement membrane heparan sulfate chains decreased from 2 days to 1 week in skin of the solvent control, stainability of basement membrane heparan sulfate chains was protected by application of suramin.\nNext, heparan sulfate chains and perlecan core protein in the skin were immunostained, and the staining results are shown in FIG. 6. Although staining of basement membrane heparan sulfate chains decreased considerably for the solvent control, stainability of basement membrane heparan sulfate chains was protected in the 1-[4-(1H-benzoimidazol-2-yl)-phenyl]-3-[4-(1H-benzoimidazol-2-yl)-phenyl]-urea application group."}, "heparanase": {"molecular_target": "T1, heparanase (Homo sapiens, UniProt Q9Y251)", "T1 construct": "the resulting supernatant was used as a cell extract; endogenous in cells; host or cells: A431 cells (lysate supernatant)", "T1 sequence (Q9Y251 158-543 limits assumed)": "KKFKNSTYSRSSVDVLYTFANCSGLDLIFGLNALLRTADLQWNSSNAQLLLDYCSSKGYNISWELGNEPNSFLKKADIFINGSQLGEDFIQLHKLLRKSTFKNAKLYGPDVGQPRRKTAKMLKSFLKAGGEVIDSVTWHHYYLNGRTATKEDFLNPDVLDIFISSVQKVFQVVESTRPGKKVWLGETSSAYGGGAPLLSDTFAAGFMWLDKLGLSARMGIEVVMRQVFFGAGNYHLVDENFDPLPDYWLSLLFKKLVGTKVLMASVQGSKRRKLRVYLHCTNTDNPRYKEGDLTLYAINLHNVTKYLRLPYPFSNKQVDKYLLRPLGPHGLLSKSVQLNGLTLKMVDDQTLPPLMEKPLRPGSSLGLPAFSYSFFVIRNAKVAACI", "T1 sequence (Q9Y251 36-109 limits assumed)": "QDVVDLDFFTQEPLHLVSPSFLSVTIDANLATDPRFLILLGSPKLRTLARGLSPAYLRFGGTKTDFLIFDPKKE", "test": "Primary evaluation: heparanase activity inhibition, A431 cell extract on biotinylated heparan sulfate-immobilized plate", "type": "biochemical", "conditions": "2 hours at 37° C., DMSO control", "source_text": "As will be described in detail in the following examples, primary evaluation of heparanase activity can be carried out by, for example, immobilizing biotinylated heparan sulfate in a 96-well plate, allowing the heparanase to act in the presence of a pharmaceutical preparation or herbal medicine, and evaluating the activity of heparanase as the amount of the decrease in biotinylated heparan sulfate by allowing peroxidase-labeled avidin to act thereon and developing the resulting color. […] Secondary evaluation can be carried out by using HT1080 cells expressing heparanase. […] Therefore, heparanase inhibitory activity can be evaluated on the basis of the degree of migration (recovery) at the scratched site by adding an evaluation reagent.\nA431 cells (invasive human epithelial carcinoma cells) were cultured in DMEM medium containing 10% serum. […] The amount of protein in the cell extract was measured with a BCA Protein Assay Kit (Pierce, CA46141). […]\nHeparanase activity was calculated from a calibration curve of the A431 cell extract, and inhibition rate (%) was indicated as a relative value to a reference (control) to which the cell extract was not added. […]\nThe plant extracts were evaluated for heparanase inhibitory effects in accordance with the aforementioned primary and secondary evaluation methods using sample solutions of the plant extracts instead of 4-(1H-benzoimidazol-2-yl)-phenylamine."}, "HT1080 cells": {"system": "HT1080 cells", "test": "Secondary evaluation: wound healing assay using HT1080 cells", "type": "cell-based", "conditions": "HT1080 cells, 1, 10, 100 μM, DMSO control", "source_text": "As will be described in detail in the following examples, primary evaluation of heparanase activity can be carried out by, for example, immobilizing biotinylated heparan sulfate in a 96-well plate, allowing the heparanase to act in the presence of a pharmaceutical preparation or herbal medicine, and evaluating the activity of heparanase as the amount of the decrease in biotinylated heparan sulfate by allowing peroxidase-labeled avidin to act thereon and developing the resulting color. […] Secondary evaluation can be carried out by using HT1080 cells expressing heparanase. When HT1080 cells are scratched after having been cultured to confluency, cells are known to migrate in a heparanase activity-dependent manner (see Ishida, K., et al., Mol. Cancer Ther., 2004, 3(9): 1069-1077 (Non-Patent Document 4)). Therefore, heparanase inhibitory activity can be evaluated on the basis of the degree of migration (recovery) at the scratched site by adding an evaluation reagent.\nHT1080 cells were inoculated into a 6-well plate at 500,000 cells/well, and the medium was replaced with that containing each drug 24 hours later followed by scratching in the vertical direction with a 1000 μL tip. Micrographs were taken 6 hours later and changes at the scratched site were observed. […] DMSO was allowed to act as a control instead of the candidate drugs."}}}
{"smiles": "Cc1ccc(C(=O)Nc2ccc(S(=O)(=O)O)c3cc(S(=O)(=O)O)cc(S(=O)(=O)O)c23)cc1NC(=O)c1cccc(NC(=O)Nc2cccc(C(=O)Nc3cc(C(=O)Nc4ccc(S(=O)(=O)O)c5cc(S(=O)(=O)O)cc(S(=O)(=O)O)c45)ccc3C)c2)c1", "note": "[suramin]", "values": [{"measurement": "mean value of wrinkle formation scores (visual evaluation; 0 no wrinkles to 3 deep wrinkles)", "setting": "fine wrinkle model", "result": 0.31}, {"measurement": "stainability of basement membrane heparan sulfate chains (immunostaining)", "setting": "[1]", "result": "protected"}]}
{"smiles": "O=C(Nc1ccc(-c2nc3ccccc3[nH]2)cc1)Nc1ccc(-c2nc3ccccc3[nH]2)cc1", "note": "[1-[4-(1H-benzoimidazol-2-yl)-phenyl]-3-[4-(1H-benzoimidazol-2-yl)-phenyl]-urea]", "values": [{"measurement": "mean value of wrinkle formation scores (visual evaluation; 0 no wrinkles to 3 deep wrinkles)", "setting": "fine wrinkle model", "result": 0.36}, {"measurement": "stainability of basement membrane heparan sulfate chains (immunostaining)", "setting": "[1]", "result": "protected"}]}
{"smiles": "Nc1ccc(-c2nc3ccccc3[nH]2)cc1", "note": "[4-(1H-benzoimidazol-2-yl)-phenylamine]", "values": [{"measurement": "IC50", "setting": "heparanase", "result": 256, "unit": "µM"}, {"measurement": "cell migration activity at scratched site", "setting": "HT1080 cells", "result": "decreased in a concentration-dependent manner"}]}
